Experiment [1] deals with cucumber Gray mold fungus. In words: Test Example 1: cucumber Gray mold control test, foliar spray on potted cucumber. In kind it is in vivo. Conditions: spray on cucumber stems and leaves, 6 days at 12° C. humid. On the procedure: A plastic pot was stuffed with sand loam, and cucumber was sowed, and grown for 12 days in a greenhouse. A compound (Ia), compound (Ib) and compound (II) were prepared into flowable formulations according to the following preparation method, and the resultant flowable formulations were diluted with water, then, mixed to prepare a treatment solution containing the compound (Ia) and compound (II) of prescribed concentrations, and a treatment solution containing the compound (Ib) and compound (II) of prescribed concentrations. The treatment solutions were sprayed on stems and leaves so as to fully adhere to the leaf surfaces of the cucumber. After spraying, the plant was air-dried, and a PDA medium containing spores of cucumber Gray mold fungus was placed on the cucumber leaf surface. Thereafter, it was left for 6 days at 12° C. under humid condition, then, a control effect thereof was checked.
Further, wettable powders of the compound (Ia), compound (Ib) and compound (II) each were diluted with water to prescribed concentrations to prepare respective treatment solutions, which were subjected to a parallel test.
In checking, evaluation indices described later were used. According to formula 1, the pathogenesis degree was calculated, and based on the pathogenesis degree, a controlling value (%) was calculated using formula 2.
A compound (Ia), compound (Ib) or compound (II) (10 parts), a mixture (35 parts) of white carbon and polyoxyethylene alkyl ether sulfate ammonium salt (weight ratio 1:1) and water (55 parts) were mixed, and finely ground by a wet grinding method to obtain respective flowable formulations.
• 0: disease spot diameter, 0 mm • 1: disease spot diameter, 1 to 5 mm • 2: disease spot diameter, 5 to 10 mm • 3: disease spot diameter, 10 to 15 mm • 4: disease spot diameter, 15 to 20 mm • 5: disease spot diameter, over 20 mm pathogenesis degree=Σ(evaluation index of checked leaf)×100/(5×number of checked leaves) Formula 1 controlling value (%)=100×(A−B)/A Formula 2 • A: pathogenesis degree of plant in non-treated district • B: pathogenesis degree of plant in treated district

The test system of experiment [2] is cucumber Gray mold fungus. The experiment in a line: Test Example 2: cucumber Gray mold control test, foliar spray on potted cucumber, disease spot diameter indices. Conditions: sum over 8 cucumber leaves, index 0 (spot 0 mm) to 5 (over 20 mm), 12° C. humid. It is filed as in vivo. Here is the method:
A plastic pot was stuffed with sand loam, and cucumber was sowed, and grown for 12 days in a greenhouse. A compound (Ia), compound (Ib), compound (III) and compound (IV) were prepared into flowable formulations according to the following preparation method, and the resultant flowable formulations were diluted with water, then, mixed to prepare a treatment solution containing the compound (Ia) and compound (III) of prescribed concentrations, a treatment solution containing the compound (Ib) and compound (III) of prescribed concentrations, a treatment solution containing the compound (Ia) and compound (IV) of prescribed concentrations, and a treatment solution containing the compound (Ib) and compound (IV) of prescribed concentrations. The treatment solutions were sprayed on stems and leaves so as to fully adhere to the leaf surfaces of the cucumber. After spraying, the plant was air-dried, and a PDA medium containing spores of cucumber Gray mold fungus was placed on the cucumber leaf surface. Thereafter, it was left under humid condition at 12° C., then, a control effect thereof was checked.
Further, wettable powders of the compound (Ia), compound (Ib), compound (III) and compound (IV) each were diluted with water to prescribed concentrations to prepare respective treatment solutions, which were subjected to a parallel test.
In checking of the control effect, the disease spot diameter was measured for 8 leaves of cucumber. A case of a disease spot diameter of 0 mm was evaluated as a controlling index of 0, a case of a disease spot diameter of 1 to 5 mm was evaluated as a controlling index of 1, a case of a disease spot diameter of 5 to 10 mm was evaluated as a controlling index of 2, a case of a disease spot diameter of 10 to 15 mm was evaluated as a controlling index of 3, a case of a disease spot diameter of 15 to 20 mm was evaluated as a controlling index of 4, and a case of a disease spot diameter of over 20 mm was evaluated as a controlling index of 5.
A compound (Ia), compound (Ib), compound (III) or compound (IV) (10 parts), a mixture (35 parts) of white carbon and polyoxyethylene alkyl ether sulfate ammonium salt (weight ratio 1:1) and water (55 parts) were mixed, and finely ground by a wet grinding method to obtain respective flowable formulations.

Setting [3] is: active ingredient concentration 5 ppm.
[4] abbreviates: active ingredient concentration 20 ppm.
The mark [5] stands for this setting: active ingredient concentration 40 ppm.
Setting [6] is: active ingredient concentration 10 ppm.
Where [7] appears, read: active ingredient concentration 2.5 ppm.

`CNC(=O)C(OC)c1ccccc1COc1cc(C)ccc1C` (stereo not drawn) [compound (Ib)]: the figures for the controlling value in experiment [1] (setting [3]), in experiment [1] (setting [4]) and in experiment [1] (setting [5]) were 48%, 60% and 68%, respectively. Also, the “sum of controlling indices” value was 25 in experiment [2] (setting [3]), 26 in experiment [2] (setting [6]), 24 in experiment [2] (setting [4]) and 24 in experiment [2] (setting [5]).
Regarding `CNC(=O)[C@H](OC)c1ccccc1COc1cc(C)ccc1C` [compound (Ia)], the controlling value worked out at 48% in experiment [1] (setting [7]), 60% in experiment [1] (setting [6]) and 68% in experiment [1] (setting [4]). The “sum of controlling indices” value turned out to be 27 in experiment [2] (setting [7]), 25 in experiment [2] (setting [3]), 24 in experiment [2] (setting [6]) and 23 in experiment [2] (setting [4]).
Regarding `Cc1cc(C)nc(Nc2ccccc2)n1` [compound (II), 4,6-dimethyl-N-phenyl-2-pyrimidinamine, reference compound], in experiment [1] (setting [6]), the controlling value came out at 30%.
As to `CC#Cc1cc(C)nc(Nc2ccccc2)n1` [compound (III), 4-methyl-N-phenyl-6-(1-propynyl)-2-pyrimidinamine, reference compound], in experiment [2] (setting [3]), the “sum of controlling indices” value turned out to be 10.
Consider `Cc1cc(C2CC2)nc(Nc2ccccc2)n1` [compound (IV), 4-cyclopropyl-6-methyl-N-phenyl-2-pyrimidinamine, reference compound], for which the “sum of controlling indices” value stood at 24 in experiment [2] (setting [7]) and 9 in experiment [2] (setting [3]).

For the origin of these results see patent publication US8592438B2, “Plant disease control composition” (Sumitomo Chemical Intellectual Property Service, Ltd, priority 2008, dated 2013).
